Reference: patent US10689378B2, “Triazolopyridine compounds and uses thereof” (Novartis AG, priority 2016, dated 2020)

Legend:
EED (1-441)-His protein = target: T1, EED (1-441)-His protein (Homo sapiens, UniProt O75530); assay: EED-H3K27Me3 peptide competition binding assay by AlphaScreen; conditions: read-out: (a) IC50, EED Alphascreen binding Qualified
T1 construct: 30 nM EED (1-441)-His protein
Outline: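 Serially diluted compound (12 points, 3-fold) incubated 20 min with 30 nM EED(1-441)-His and 15 nM biotin-H3K27Me3(19-33) peptide in 25 mM HEPES pH 8, 0.02% Tween-20, 0.5% BSA. Ni-chelate acceptor/streptavidin donor beads (10 μg/mL each) added, 1 h rt dark; 615 nm emission normalized to controls, dose-response fit for IC50.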

[1] = target: wild type PRC2 (wtPRC2) complex (Homo sapiens, UniProt O75530); assay: EED LC-MS assay (SAH production by PRC2); format: biochemical; conditions: read-out: (b) IC50, EED LC-MS Qualified
Sequence of wild type PRC2 (wtPRC2) complex (O75530 whole entry): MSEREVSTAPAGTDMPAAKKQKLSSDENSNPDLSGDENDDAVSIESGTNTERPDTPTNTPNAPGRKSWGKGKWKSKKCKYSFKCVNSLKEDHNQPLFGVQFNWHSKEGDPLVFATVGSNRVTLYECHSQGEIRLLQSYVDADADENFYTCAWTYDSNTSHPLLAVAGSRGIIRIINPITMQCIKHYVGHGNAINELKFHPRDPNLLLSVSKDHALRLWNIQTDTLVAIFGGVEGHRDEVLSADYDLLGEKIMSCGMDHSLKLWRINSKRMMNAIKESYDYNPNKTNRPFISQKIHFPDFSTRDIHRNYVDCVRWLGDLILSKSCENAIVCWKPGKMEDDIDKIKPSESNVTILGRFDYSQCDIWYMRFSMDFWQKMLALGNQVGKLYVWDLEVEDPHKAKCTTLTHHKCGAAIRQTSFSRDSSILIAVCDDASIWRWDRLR
Sequence of wild type PRC2 (wtPRC2) complex (Q15910 whole entry partner): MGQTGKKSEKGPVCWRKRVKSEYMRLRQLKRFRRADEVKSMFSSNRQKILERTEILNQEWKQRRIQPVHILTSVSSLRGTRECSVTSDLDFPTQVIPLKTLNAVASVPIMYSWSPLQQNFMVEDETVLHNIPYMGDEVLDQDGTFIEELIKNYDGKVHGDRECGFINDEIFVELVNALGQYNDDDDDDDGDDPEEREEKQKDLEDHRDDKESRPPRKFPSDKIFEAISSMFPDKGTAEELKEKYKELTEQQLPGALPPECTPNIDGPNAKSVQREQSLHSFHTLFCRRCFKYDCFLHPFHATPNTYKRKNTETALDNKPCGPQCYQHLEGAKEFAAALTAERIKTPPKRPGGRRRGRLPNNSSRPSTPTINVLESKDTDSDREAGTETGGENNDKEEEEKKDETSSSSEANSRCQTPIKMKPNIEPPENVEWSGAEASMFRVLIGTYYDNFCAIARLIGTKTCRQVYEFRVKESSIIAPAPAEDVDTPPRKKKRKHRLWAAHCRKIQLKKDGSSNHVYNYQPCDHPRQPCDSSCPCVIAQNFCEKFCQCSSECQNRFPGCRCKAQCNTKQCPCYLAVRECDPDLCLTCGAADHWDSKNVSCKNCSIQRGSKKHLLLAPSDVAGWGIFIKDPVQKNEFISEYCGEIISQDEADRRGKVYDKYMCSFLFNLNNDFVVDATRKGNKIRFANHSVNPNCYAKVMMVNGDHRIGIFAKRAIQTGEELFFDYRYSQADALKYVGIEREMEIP
Sequence of wild type PRC2 (wtPRC2) complex (Q15022 whole entry partner): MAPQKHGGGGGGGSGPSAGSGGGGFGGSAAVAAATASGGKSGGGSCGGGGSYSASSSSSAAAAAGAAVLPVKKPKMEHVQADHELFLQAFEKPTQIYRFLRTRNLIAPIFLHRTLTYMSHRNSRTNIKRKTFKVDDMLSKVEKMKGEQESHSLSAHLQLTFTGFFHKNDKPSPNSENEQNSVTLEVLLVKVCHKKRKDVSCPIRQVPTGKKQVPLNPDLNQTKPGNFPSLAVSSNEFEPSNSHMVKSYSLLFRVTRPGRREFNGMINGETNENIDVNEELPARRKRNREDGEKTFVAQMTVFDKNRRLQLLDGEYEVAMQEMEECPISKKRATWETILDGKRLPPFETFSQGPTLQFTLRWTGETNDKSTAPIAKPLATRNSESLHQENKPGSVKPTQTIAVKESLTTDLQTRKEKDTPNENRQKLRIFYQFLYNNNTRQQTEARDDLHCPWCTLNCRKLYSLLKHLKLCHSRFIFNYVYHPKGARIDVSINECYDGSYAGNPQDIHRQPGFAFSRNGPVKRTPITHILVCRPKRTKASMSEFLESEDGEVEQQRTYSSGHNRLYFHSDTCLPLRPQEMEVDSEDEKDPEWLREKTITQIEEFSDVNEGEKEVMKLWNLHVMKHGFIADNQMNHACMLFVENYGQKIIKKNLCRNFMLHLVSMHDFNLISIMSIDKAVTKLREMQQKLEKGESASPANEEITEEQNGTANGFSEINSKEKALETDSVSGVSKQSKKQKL
Sequence of wild type PRC2 (wtPRC2) complex (Q09028 whole entry partner): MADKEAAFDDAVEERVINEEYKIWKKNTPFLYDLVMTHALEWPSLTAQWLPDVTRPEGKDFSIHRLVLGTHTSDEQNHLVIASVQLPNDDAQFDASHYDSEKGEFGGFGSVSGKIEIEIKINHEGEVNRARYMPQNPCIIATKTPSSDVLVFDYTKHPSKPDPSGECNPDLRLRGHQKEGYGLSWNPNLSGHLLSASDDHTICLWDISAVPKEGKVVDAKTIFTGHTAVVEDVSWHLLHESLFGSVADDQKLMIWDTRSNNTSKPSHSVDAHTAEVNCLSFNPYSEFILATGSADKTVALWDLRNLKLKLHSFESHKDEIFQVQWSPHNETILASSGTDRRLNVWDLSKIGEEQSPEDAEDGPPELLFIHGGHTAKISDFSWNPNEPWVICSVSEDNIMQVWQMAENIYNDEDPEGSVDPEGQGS
Sequence of wild type PRC2 (wtPRC2) complex (Q6ZN18 whole entry partner): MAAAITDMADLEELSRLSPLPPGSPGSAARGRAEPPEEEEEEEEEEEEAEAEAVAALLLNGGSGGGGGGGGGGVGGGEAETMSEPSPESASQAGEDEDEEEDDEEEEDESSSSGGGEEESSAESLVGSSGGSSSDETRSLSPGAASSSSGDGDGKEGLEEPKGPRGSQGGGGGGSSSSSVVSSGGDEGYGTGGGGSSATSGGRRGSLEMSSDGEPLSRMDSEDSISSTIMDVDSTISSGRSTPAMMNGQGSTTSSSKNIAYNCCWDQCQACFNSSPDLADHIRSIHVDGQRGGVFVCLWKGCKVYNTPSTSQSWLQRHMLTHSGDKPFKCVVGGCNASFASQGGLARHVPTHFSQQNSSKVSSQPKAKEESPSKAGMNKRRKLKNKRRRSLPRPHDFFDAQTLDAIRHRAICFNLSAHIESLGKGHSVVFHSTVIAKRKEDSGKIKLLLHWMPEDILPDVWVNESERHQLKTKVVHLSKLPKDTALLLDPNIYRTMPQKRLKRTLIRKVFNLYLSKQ
Description: Compounds of the present invention were assessed for their ability to inhibit PRC2 activity in a pentameric complex of EZH2, SUZ12, EED, Rbap48 and AEBP in biochemical assays. The ability of compounds of the present invention to inhibit cellular activity of PRC2 was assessed by analysing histone H3 lysine 27 methylation in human cell lines. The ability of compounds of the present invention to inhibit cancers was derived from their ability to modulate activity in human cancer cell lines bearing specific dependence to PRC2 activity to maintain cancerous growth.
Representative compounds of the present invention were serially and separately diluted 3-fold in DMSO to obtain a total of eight or twelve concentrations. Then the test compounds at each concentration (120 nL of each) were transferred by Mosquito into a 384-well Perkin Elmer ProxiPlate 384 plus plates. Solutions (6 μL) of 24 nM the wild type PRC2 (wtPRC2) complex and 2 μM SAM in reaction buffer (20 mM Tris, pH 8.0, 0.1% BSA, 0.01% Triton, 0.5 mM DTT) were added to the wells that were then incubated with the test compound for 20 min. A 6 μL solution of 3 μM of the peptide substrate H3K27Me0 (histone H3[21-44]-biotin) in reaction buffer was added to initiate each reaction. The final components in the reaction solution include 12 nM wtPRC2 complex, 1 μM SAM, and 1.5 μM H3K27me0 peptide with varying concentration of the compounds. A positive control consisted of the enzyme, 1 μM SAM and 1.5 μM substrate in the absence of the test compound, and a negative control consisted of 1 μM SAM and 1.5 μM substrate only. Each reaction was incubated at rt for 120 min, then stopped by addition of 3 μL per of quench solution (2.5% TFA with 320 nM d4-SAH). The reaction mixture was centrifuged (Eppendorf centrifuge 5810, Rotor A-4-62) for 2 min at 2000 rpm and read on an API 4000 triple quadrupole mass spec with Turbulon Spray (Applied Biosystem) coupled with Prominence UFLC (Shimadzu). The levels of SAH production were then normalized based on the values coming from the positive and negative controls to give percent enzyme activities. The data were then fit to a dose response equation using the program Helios to get the IC50 values of the test compound.

[2] = test system: H3K27 methylation in G401 cell; assay: ELISA (H3K27 methylation) assay in G401 cells; format: cell-based, human; conditions: Homo sapiens, G-401, read-out: (c) IC50, ELISA Qualified
Outline: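 IC50 from dose-response fit of percent inhibition relative to DMSO, using H3K27me3/me2 ELISA signal (ECL) normalized to histone H3. Histones HCl-extracted after 48 h compound exposure of G401 cells at up to 20 μM, 8- or 12-point 3-fold series.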

T1 sequence (O75530 whole entry): as the sequence (O75530 whole entry) above

SMILES | IC50 (EED (1-441)-His protein) | IC50 [1] | IC50 [2]
COc1cc(F)ccc1CNc1ccc(-c2ccc(CN(C)C)cc2)c2nncn12 [Example 33, 8-(4-((dimethylamino)methyl)phenyl)-N-(4-fluoro-2-methoxybenzyl)-[1,2,4] triazolo[4,3-a]pyridin-5-amine] | 84.2 nM | 294 nM | 277 nM
COc1ccccc1CNc1ccc(-c2ccc(S(=O)(=O)N(C)C)cc2)c2nncn12 [Example 34, 4-(5-((2-methoxybenzyl)amino)-[1,2,4]triazolo[4,3-a]pyridin-8-yl)-N,N-dimethyl benzenesulfonamide] | 4.5 nM | 358 nM | 18.4 nM
COc1ccccc1CNc1ccc(-c2ccc(CN3CCOCC3)nc2)c2nncn12 [Example 38, N-(2-methoxybenzyl)-8-(6-(morpholinomethyl)pyridin-3-yl)-[1,2,4]triazolo[4,3-a] pyridin-5-amine] | 32.5 nM | 438 nM | 46.9 nM
COc1ccccc1CNc1ccc(-c2ccc(CN3CCN(C)CC3)cc2)c2nncn12 [Example 39, N-(2-methoxybenzyl)-8-(4-((4-methylpiperazin-1-yl)methyl)phenyl)-[1,2,4] triazolo[4,3-a]pyridin-5-amine] | 15.5 nM | 269 nM | 37.5 nM
COc1ccccc1CNc1ccc(-c2ccc(C[N+](C)(C)[O-])cc2)c2nncn12 [Example 40, 1-(4-(5-((2-methoxybenzyl)amino)-[1,2,4]triazolo[4,3-a]pyridin-8-yl)phenyl)-N,N-dimethylmethanamine oxide] | 78 nM | 457 nM | 138 nM
COc1ccccc1CNc1ccc(-c2ccc(C(=O)N(C)C)cc2)c2nncn12 [Example 41, 4-(5-((2-methoxybenzyl)amino)-[1,2,4]triazolo[4,3-a]pyridin-8-yl)-N,N-dimethyl benzamide] | 24.9 nM | 305 nM | 47.4 nM
COc1ccccc1CNc1ccc(-c2ccc(C(=O)N3CCCC3)cc2)c2nncn12 [Example 42, (4-(5-((2-methoxybenzyl)amino)-[1,2,4]triazolo[4,3-a]pyridin-8-yl)phenyl) (pyrrolidin-1-yl)methanone] | 16.5 nM | 206 nM | 27.9 nM
COc1ccccc1CNc1ccc(-c2cc(F)c(CN(C)C)c(F)c2)c2nncn12 [Example 43, 8-(4-((dimethylamino)methyl)-3,5-difluorophenyl)-N-(2-methoxybenzyl)-[1,2,4] triazolo[4,3-a]pyridin-5-amine] | 9.5 nM | 785 nM | 3.8 nM
COc1ccccc1CNc1ccc(-c2cc(F)c(CN3CCCCC3)c(F)c2)c2nncn12 [Example 44, 8-(3,5-difluoro-4-(piperidin-1-ylmethyl)phenyl)-N-(2-methoxybenzyl)-[1,2,4] triazolo[4,3-a]pyridin-5-amine] | 74.8 nM | 1100 nM | 112 nM
COc1cccc(F)c1CNc1ccc(-c2ccc(CN(C)C)cc2)c2nncn12 [Example 45, 8-(4-((dimethylamino)methyl)phenyl)-N-(2-fluoro-6-methoxybenzyl)-[1,2,4] triazolo[4,3-a]pyridin-5-amine] | 17.7 nM | 23.3 nM | 7.6 nM
COc1ccccc1CNc1ccc(-c2ccccc2F)c2nncn12 [Example 47, 8-(2-fluorophenyl)-N-(2-methoxybenzyl)-[1,2,4] triazolo[4,3-a]pyridin-5-amine] | 98.5 nM | 1330 nM | 293 nM
COc1ccccc1CNc1ccc(-c2cnc(OC)c(F)c2)c2nncn12 [Example 50, 8-(5-fluoro-6-methoxypyridin-3-yl)-N-(2-methoxybenzyl)-[1,2,4]triazolo[4,3-a] pyridin-5-amine] | 91.5 nM | 3190 nM | 374 nM
COc1ncc(-c2ccc(NCc3ccccc3OC)n3cnnc23)cn1 [Example 52, N-(2-methoxybenzyl)-8-(2-methoxypyrimidin-5-yl)-[1,2,4]triazolo[4,3-a]pyridin-5-amine] | 89.4 nM | 735 nM | 106 nM
COc1ccccc1CNc1ccc(-c2ccc(S(=O)(=O)C3CCNCC3)cc2)c2nncn12 [Example 53, N-(2-methoxybenzyl)-8-(4-(piperidin-4-ylsulfonyl)phenyl)-[1,2,4]triazolo[4,3-a] pyridin-5-amine] | 27.9 nM | 144 nM | 36.5 nM
COc1ccccc1CNc1ccc(-c2ccc(CN3CC(F)(F)C3)cc2)c2nncn12 [Example 54, 8-(4-((3,3-difluoroazetidin-1-yl)methyl)phenyl)-N-(2-methoxybenzyl)-[1,2,4] triazolo[4,3-a]pyridin-5-amine] | 19 nM | 230 nM | 56.6 nM
CCS(=O)(=O)c1ccc(-c2ccc(NCc3ccccc3OC)n3cnnc23)cc1 [Example 56, 8-(4-(ethylsulfonyl)phenyl)-N-(2-methoxybenzyl)-[1,2,4]triazolo[4,3-a]pyridin-5-amine] | 33 nM | 130 nM | 88.5 nM
COc1ccccc1CNc1ccc(-c2ccc(S(=O)(=O)C(C)C)cc2)c2nncn12 [Example 57, 8-(4-(isopropylsulfonyl)phenyl)-N-(2-methoxybenzyl)-[1,2,4]triazolo[4,3-a] pyridin-5-amine] | 15.9 nM | 183 nM | 39.5 nM
COc1ccccc1CNc1ccc(-c2ccc(S(C)(=O)=O)nc2)c2nncn12 [Example 61, N-(2-methoxybenzyl)-8-(6-(methylsulfonyl)pyridin-3-yl)-[1,2,4]triazolo[4,3-a] pyridin-5-amine] | 43.8 nM | 538 nM | 61.9 nM
COc1ccccc1CNc1ccc(-c2c(C)noc2C)c2nncn12 [Example 62, 8-(3,5-dimethylisoxazol-4-yl)-N-(2-methoxybenzyl)-[1,2,4]triazolo[4,3-a]pyridin-5-amine] | 43.6 nM | 321 nM | 66.7 nM
COc1ccccc1CNc1ccc(-c2ccc(C(C)=O)cc2)c2nncn12 [Example 63, 1-(4-(5-((2-methoxybenzyl)amino)-[1,2,4]triazolo[4,3-a]pyridin-8-yl)phenyl) ethanone] | 76.8 nM | 1700 nM | 275 nM
COc1ccccc1CNc1ccc(-c2ccc(C(N)=O)c(Cl)c2)c2nncn12 [Example 64, 2-chloro-4-(5-((2-methoxybenzyl)amino)-[1,2,4]triazolo[4,3-a]pyridin-8-yl) benzamide] | 31.7 nM | 914 nM | 126 nM
COc1ccccc1CNc1ccc(-c2ccc(CN3CC(F)C3)cc2)c2nncn12 [Example 66, 8-(4-((3-fluoroazetidin-1-yl)methyl)phenyl)-N-(2-methoxybenzyl)-[1,2,4] triazolo[4,3-a]pyridin-5-amine] | 11.8 nM | 252 nM | 29.9 nM
COc1ccccc1CNc1ccc(-c2ccnc(N3CCN(C)CC3)c2)c2nncn12 [Example 67, N-(2-methoxybenzyl)-8-(2-(4-methylpiperazin-1-yl)pyridin-4-yl)-[1,2,4] triazolo[4,3-a]pyridin-5-amine] | 54.6 nM | 197 nM | 45 nM
COc1ccccc1CNc1ccc(-c2ccc(S(=O)(=O)N3CCCC3)cc2)c2nncn12 [Example 68, N-(2-methoxybenzyl)-8-(4-(pyrrolidin-1-ylsulfonyl)phenyl)-[1,2,4]triazolo[4,3-a] pyridin-5-amine] | 16.7 nM | 311 nM | 49.7 nM
CCN1CCN(c2ccc(-c3ccc(NCc4ccccc4OC)n4cnnc34)cn2)CC1 [Example 69, 8-(6-(4-ethylpiperazin-1-yl)pyridin-3-yl)-N-(2-methoxybenzyl)-[1,2,4]triazolo[4,3-a] pyridin-5-amine] | 28.2 nM | 304 nM | 73.7 nM
